Data from the kinase profiling compilation of Christmann-Franck et al. (2016).

Columns and labels:
Test in all cases: KINOMEscan competition binding
Settings in all cases: compound 10.0 µM
[1] = target: DAPK1 (human) (UniProt P53355)
[2] = target: CAMK4 (human) (UniProt Q16566)
[3] = target: PRKAA2 (human) (UniProt P54646)
[4] = target: NEK7 (human) (UniProt Q8TDX7)
[5] = target: RPS6KA4 KD1 (human) (UniProt O75676)
[6] = target: CIT (human) (UniProt O14578)
[7] = system: FLT3 (human), P36888 [K663Q]
[8] = target: STK32A (human) (UniProt Q8WU08)
[9] = target: ERN1 (human) (UniProt O75460)
[10] = target: CaMK1 (human) (UniProt Q14012)
CaMK1 (human), sequence (Q14012 whole entry, looked up): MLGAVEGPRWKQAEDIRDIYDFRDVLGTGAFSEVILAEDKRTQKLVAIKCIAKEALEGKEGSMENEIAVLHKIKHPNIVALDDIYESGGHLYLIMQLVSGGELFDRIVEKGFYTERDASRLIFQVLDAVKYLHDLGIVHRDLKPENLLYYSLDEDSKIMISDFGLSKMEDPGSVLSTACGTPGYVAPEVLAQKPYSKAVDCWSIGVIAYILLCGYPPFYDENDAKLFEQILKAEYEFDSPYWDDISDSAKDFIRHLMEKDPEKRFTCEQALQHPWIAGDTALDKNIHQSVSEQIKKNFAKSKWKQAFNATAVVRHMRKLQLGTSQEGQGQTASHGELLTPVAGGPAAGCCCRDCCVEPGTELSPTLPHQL

[11] = target: PRKCQ (human) (UniProt Q04759)
[12] = target: MYLK4 (human) (UniProt Q86YV6)
[13] = target: STK39 (human) (UniProt Q9UEW8)
[14] = target: MAPK6 (human) (UniProt Q16659)
[15] = target: TLK2 (human) (UniProt Q86UE8)
[16] = target: PRKACB (human) (UniProt P22694)
[17] = target: MAP2K6 (human) (UniProt P52564)
[18] = target: ACVRL1 (human) (UniProt P37023)
[19] = target: MAP2K4 (human) (UniProt P45985)
[20] = target: EIF2AK2 (human) (UniProt P19525)
[21] = target: FGR (human) (UniProt P09769)
[22] = target: CDC42BPA (human) (UniProt Q5VT25)
[23] = target: ERBB2 (human) (UniProt P04626)
[24] = target: FGFR4 (human) (UniProt P22455)
[25] = target: ACVR1B (human) (UniProt P36896)
[26] = target: RPS6KA6 KD2 (human) (UniProt Q9UK32)
[27] = target: PLK1 (human) (UniProt P53350)
[28] = target: PKN2 (human) (UniProt Q16513)
[29] = target: TTK (human) (UniProt P33981)
TTK (human), sequence (P33981 whole entry, looked up): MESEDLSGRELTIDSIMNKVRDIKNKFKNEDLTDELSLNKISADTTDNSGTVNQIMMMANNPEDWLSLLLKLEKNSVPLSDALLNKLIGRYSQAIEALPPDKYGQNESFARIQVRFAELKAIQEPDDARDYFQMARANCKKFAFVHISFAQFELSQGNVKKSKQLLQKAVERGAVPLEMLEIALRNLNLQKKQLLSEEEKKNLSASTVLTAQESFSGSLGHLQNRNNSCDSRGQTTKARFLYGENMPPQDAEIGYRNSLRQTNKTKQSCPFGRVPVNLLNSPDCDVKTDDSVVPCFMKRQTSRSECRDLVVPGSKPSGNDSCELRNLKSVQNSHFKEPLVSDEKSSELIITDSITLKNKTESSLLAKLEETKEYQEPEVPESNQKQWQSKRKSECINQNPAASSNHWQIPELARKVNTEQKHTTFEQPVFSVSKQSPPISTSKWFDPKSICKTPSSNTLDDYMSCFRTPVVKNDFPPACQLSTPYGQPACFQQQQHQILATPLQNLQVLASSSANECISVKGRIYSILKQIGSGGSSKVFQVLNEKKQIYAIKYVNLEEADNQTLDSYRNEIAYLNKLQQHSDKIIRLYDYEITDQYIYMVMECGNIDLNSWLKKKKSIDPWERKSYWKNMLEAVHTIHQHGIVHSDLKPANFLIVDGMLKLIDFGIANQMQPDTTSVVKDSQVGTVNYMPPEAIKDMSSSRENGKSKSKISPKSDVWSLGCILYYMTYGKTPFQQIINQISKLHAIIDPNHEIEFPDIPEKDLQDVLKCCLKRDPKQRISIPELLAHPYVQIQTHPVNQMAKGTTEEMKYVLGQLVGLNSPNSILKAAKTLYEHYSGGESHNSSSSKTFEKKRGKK

[30] = target: YSK4 (human) (UniProt Q56UN5)
[31] = target: PLK2 (human) (UniProt Q9NYY3)
[32] = target: TYK2 JH2 pseudokinase (human) (UniProt P29597)
[33] = target: MYO3B (human) (UniProt Q8WXR4)
[34] = target: BTK (human) (UniProt Q06187)
[35] = target: GAK (human) (UniProt O14976)
GAK (human), sequence (O14976 whole entry, looked up): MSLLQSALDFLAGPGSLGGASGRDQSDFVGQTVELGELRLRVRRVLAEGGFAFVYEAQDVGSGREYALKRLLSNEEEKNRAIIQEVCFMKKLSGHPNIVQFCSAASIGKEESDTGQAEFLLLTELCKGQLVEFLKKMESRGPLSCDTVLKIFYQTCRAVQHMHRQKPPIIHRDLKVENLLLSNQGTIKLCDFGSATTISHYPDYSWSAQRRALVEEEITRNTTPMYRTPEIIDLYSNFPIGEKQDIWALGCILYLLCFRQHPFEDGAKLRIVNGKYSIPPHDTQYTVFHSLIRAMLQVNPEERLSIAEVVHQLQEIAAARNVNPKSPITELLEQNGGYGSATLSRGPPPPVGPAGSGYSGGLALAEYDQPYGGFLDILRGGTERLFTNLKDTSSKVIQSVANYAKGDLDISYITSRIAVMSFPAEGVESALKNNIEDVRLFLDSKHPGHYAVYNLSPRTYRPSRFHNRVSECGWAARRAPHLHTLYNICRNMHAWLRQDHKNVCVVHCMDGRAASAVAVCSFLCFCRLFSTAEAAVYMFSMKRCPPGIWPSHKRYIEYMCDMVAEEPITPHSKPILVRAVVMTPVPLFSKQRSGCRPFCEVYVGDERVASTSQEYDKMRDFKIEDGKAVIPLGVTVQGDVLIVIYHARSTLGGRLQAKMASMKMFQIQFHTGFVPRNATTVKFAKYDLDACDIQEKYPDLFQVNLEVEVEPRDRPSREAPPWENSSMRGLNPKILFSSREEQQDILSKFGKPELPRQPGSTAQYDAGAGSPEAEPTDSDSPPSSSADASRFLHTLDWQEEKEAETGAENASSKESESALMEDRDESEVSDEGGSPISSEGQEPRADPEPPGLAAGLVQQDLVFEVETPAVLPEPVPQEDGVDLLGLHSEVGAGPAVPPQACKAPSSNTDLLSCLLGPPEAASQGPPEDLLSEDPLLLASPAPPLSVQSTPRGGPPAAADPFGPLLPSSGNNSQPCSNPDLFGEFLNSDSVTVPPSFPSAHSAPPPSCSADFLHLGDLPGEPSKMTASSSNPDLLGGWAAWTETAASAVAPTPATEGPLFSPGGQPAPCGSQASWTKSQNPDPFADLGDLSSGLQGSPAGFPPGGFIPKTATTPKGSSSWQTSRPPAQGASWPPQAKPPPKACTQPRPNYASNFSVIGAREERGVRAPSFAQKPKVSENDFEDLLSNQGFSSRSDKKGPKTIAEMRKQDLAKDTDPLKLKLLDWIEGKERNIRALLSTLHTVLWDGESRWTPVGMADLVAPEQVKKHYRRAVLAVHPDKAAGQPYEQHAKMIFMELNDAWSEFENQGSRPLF

[36] = target: CSNK1G3 (human) (UniProt Q9Y6M4)
[37] = target: MAP4K3 (human) (UniProt Q8IVH8)
[38] = target: CAMK2B (human) (UniProt Q13554)
[39] = target: MST4 (human) (UniProt Q9P289)
[40] = system: PIK3CA (human), P42336 [Q546K]

DAPK1 (human), sequence (P53355 whole entry, looked up): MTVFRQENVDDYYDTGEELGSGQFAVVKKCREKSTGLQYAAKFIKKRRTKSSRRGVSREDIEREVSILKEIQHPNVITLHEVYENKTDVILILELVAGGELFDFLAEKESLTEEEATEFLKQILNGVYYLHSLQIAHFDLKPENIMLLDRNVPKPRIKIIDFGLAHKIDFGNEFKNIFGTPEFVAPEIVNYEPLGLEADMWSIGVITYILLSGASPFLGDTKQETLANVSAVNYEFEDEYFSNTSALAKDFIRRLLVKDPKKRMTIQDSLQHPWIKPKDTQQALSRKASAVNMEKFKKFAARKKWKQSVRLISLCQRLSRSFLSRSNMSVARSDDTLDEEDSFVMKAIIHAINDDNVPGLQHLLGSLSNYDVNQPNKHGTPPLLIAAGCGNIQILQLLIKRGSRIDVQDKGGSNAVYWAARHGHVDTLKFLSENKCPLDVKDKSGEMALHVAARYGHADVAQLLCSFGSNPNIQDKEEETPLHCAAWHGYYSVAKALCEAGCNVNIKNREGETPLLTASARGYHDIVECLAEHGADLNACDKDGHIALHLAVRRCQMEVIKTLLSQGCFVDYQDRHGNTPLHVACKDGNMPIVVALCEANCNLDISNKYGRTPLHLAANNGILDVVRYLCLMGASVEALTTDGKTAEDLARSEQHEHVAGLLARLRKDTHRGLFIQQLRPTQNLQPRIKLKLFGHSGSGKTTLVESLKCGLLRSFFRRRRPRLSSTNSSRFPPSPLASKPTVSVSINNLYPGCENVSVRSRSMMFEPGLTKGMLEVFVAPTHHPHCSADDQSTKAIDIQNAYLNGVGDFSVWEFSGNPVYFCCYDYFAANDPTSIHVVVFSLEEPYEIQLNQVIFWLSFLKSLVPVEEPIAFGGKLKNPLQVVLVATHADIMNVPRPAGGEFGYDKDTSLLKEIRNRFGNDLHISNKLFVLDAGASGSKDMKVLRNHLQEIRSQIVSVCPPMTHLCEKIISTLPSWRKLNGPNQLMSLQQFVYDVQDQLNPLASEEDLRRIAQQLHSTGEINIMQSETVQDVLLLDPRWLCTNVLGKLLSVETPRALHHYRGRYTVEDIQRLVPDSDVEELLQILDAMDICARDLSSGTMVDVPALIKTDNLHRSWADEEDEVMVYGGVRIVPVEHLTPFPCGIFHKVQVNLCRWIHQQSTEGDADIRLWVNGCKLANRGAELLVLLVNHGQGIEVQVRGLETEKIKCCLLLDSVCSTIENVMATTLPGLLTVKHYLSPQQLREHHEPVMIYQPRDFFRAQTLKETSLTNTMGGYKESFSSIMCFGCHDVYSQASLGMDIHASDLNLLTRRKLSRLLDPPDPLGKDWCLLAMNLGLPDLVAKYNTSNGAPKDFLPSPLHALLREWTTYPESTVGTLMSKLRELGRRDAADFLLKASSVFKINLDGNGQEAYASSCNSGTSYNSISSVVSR
RPS6KA4 KD1 (human), sequence (O75676 whole entry, looked up): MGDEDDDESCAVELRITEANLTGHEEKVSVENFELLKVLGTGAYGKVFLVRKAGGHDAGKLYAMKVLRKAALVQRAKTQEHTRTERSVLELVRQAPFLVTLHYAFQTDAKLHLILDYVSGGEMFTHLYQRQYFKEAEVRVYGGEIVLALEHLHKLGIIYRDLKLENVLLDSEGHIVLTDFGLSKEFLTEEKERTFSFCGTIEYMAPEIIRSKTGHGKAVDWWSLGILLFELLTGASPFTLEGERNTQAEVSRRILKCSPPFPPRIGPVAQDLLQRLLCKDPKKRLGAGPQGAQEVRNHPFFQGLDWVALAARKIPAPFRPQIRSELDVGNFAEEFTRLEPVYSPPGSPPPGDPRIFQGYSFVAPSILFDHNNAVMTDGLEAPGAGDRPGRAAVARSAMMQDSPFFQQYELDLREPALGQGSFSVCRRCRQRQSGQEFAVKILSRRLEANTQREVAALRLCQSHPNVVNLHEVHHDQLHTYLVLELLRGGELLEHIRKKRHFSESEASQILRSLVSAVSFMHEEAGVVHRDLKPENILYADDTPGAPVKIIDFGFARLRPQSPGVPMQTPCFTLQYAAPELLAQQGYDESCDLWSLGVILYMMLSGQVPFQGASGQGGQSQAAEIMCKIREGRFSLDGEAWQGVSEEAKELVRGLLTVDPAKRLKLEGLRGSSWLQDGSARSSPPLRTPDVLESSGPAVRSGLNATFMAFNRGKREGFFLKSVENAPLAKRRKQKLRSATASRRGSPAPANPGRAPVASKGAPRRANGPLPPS
NEK7 (human), sequence (Q8TDX7 whole entry, looked up): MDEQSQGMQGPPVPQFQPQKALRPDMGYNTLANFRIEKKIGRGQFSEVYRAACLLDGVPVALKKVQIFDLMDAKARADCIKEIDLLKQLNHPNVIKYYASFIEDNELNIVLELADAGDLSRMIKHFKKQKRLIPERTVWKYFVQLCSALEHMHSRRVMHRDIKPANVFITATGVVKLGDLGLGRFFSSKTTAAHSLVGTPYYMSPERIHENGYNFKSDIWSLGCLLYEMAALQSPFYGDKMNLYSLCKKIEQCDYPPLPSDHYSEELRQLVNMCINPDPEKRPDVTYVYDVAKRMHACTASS

Row | Compound | kinase still bound, per cent of control [1] | kinase still bound, per cent of control [2] | kinase still bound, per cent of control [3] | kinase still bound, per cent of control [4] | kinase still bound, per cent of control [5] | kinase still bound, per cent of control [6] | kinase still bound, per cent of control [8] | kinase still bound, per cent of control [9] | kinase still bound, per cent of control [10] | kinase still bound, per cent of control [11] | kinase still bound, per cent of control [12] | kinase still bound, per cent of control [13] | kinase still bound, per cent of control [14] | kinase still bound, per cent of control [15] | kinase still bound, per cent of control [16] | kinase still bound, per cent of control [17] | kinase still bound, per cent of control [18] | kinase still bound, per cent of control [19] | kinase still bound, per cent of control [20] | kinase still bound, per cent of control [21] | also measured
1 | Nc1ccc(-c2ccc3ncc4ccc(=O)n(-c5cccc(C(F)(F)F)c5)c4c3c2)cn1 | 91% | 100% | 95% | 82% | 82% | 100% | 100% | 100% | 82% | 100% | 97% | 100% | 62% | 100% | 85% | 93% | 59% | 44% | 70% | 100% | kinase still bound, per cent of control [7]: 18%; kinase still bound, per cent of control [22]: 99%; kinase still bound, per cent of control [23]: 97%; kinase still bound, per cent of control [24]: 100%; kinase still bound, per cent of control [25]: 96%; kinase still bound, per cent of control [26]: 70%; kinase still bound, per cent of control [27]: 94%; kinase still bound, per cent of control [28]: 72%; kinase still bound, per cent of control [29]: 42%; kinase still bound, per cent of control [30]: 37%; kinase still bound, per cent of control [31]: 100%; kinase still bound, per cent of control [32]: 6.3%; kinase still bound, per cent of control [33]: 87%; kinase still bound, per cent of control [34]: 100%; kinase still bound, per cent of control [35]: 56%; kinase still bound, per cent of control [36]: 63%; kinase still bound, per cent of control [37]: 63%; kinase still bound, per cent of control [38]: 100%; kinase still bound, per cent of control [39]: 73%
2 | CCCS(=O)(=O)Nc1ccc(F)c(C(=O)c2c[nH]c3ncc(-c4ccc(Cl)cc4)cc23)c1F | 83% | 100% | 63% | 100% | 90% | 30% | 100% | 82% | 25% | 43% | 0.45% | 100% | 100% | 94% | 100% | 57% | 65% | 5% | 81% | 9.2% | kinase still bound, per cent of control [40]: 86%; kinase still bound, per cent of control [22]: 80%; kinase still bound, per cent of control [23]: 100%; kinase still bound, per cent of control [24]: 100%; kinase still bound, per cent of control [25]: 78%; kinase still bound, per cent of control [26]: 75%; kinase still bound, per cent of control [27]: 100%; kinase still bound, per cent of control [28]: 92%; kinase still bound, per cent of control [29]: 57%; kinase still bound, per cent of control [30]: 53%; kinase still bound, per cent of control [31]: 97%; kinase still bound, per cent of control [32]: 100%; kinase still bound, per cent of control [33]: 64%; kinase still bound, per cent of control [34]: 93%; kinase still bound, per cent of control [35]: 84%; kinase still bound, per cent of control [36]: 100%; kinase still bound, per cent of control [37]: 56%; kinase still bound, per cent of control [38]: 98%; kinase still bound, per cent of control [39]: 100%
3 | Cc1cc([C@@H](C)Nc2ccccc2C(=O)O)c2nc(N3CCOCC3)cc(=O)n2c1 | 95% | 100% | 88% | 100% | 94% | 89% | 89% | 91% | 100% | 97% | 98% | 100% | 100% | 88% | 100% | 92% | 89% | 100% | 99% | 95% | kinase still bound, per cent of control [7]: 13%; kinase still bound, per cent of control [22]: 96%; kinase still bound, per cent of control [23]: 100%; kinase still bound, per cent of control [24]: 100%; kinase still bound, per cent of control [25]: 93%; kinase still bound, per cent of control [26]: 100%; kinase still bound, per cent of control [27]: 100%; kinase still bound, per cent of control [28]: 98%; kinase still bound, per cent of control [29]: 100%; kinase still bound, per cent of control [30]: 100%; kinase still bound, per cent of control [31]: 99%; kinase still bound, per cent of control [32]: 100%; kinase still bound, per cent of control [33]: 93%; kinase still bound, per cent of control [34]: 97%; kinase still bound, per cent of control [35]: 75%; kinase still bound, per cent of control [36]: 100%; kinase still bound, per cent of control [37]: 88%; kinase still bound, per cent of control [38]: 83%; kinase still bound, per cent of control [39]: 100%
4 | O=C(NOC[C@H](O)CO)c1ccc(F)c(F)c1Nc1ccc(I)cc1F | 100% | 100% | 97% | 95% | 86% | 100% | 80% | 97% | 98% | 100% | 100% | 96% | 83% | 98% | 98% | 100% | 100% | 83% | 100% | 95% | kinase still bound, per cent of control [40]: 41%; kinase still bound, per cent of control [22]: 100%; kinase still bound, per cent of control [23]: 100%; kinase still bound, per cent of control [24]: 54%; kinase still bound, per cent of control [25]: 100%; kinase still bound, per cent of control [26]: 80%; kinase still bound, per cent of control [27]: 72%; kinase still bound, per cent of control [28]: 100%; kinase still bound, per cent of control [29]: 100%; kinase still bound, per cent of control [30]: 100%; kinase still bound, per cent of control [31]: 100%; kinase still bound, per cent of control [32]: 100%; kinase still bound, per cent of control [33]: 99%; kinase still bound, per cent of control [34]: 87%; kinase still bound, per cent of control [35]: 71%; kinase still bound, per cent of control [36]: 67%; kinase still bound, per cent of control [37]: 87%; kinase still bound, per cent of control [38]: 100%; kinase still bound, per cent of control [39]: 77%
